Where “and” joins values, the source holds several entries; their conditions need not be identical. Equal values may be shown once.
Each molecule was assayed on Abutilon theophrasti (ABUTH) (assay: Adjuvant efficacy with nicosulfuron, glasshouse spray test). Settings: nicosulfuron WG, mean over 15 and 60 g/ha and 3 replicates; adjuvant 0.2% v/v (none in No Adjuvant rows); % leaf area killed, 21 days after application; Tests 1-4 separate runs.
Format: in vivo
Method: (§1) The efficacy of adjuvants 1-12 as adjuvants for the herbicide nicosulfuron were tested in a glasshouse against four weed species sown into standard soil in pots and cultivated under controlled conditions in a glasshouse (at 24/18° C. day/night; 16 hours light; 65% humidity). Nicosulfuron was added to the spray tank as a standard WG (water dispersible granule) formulation.
(§2) The spray tests were also carried out using nicosulfuron in conjunction with adjuvants 1-12. The adjuvant was added to the spray solution at a rate of 0.2% v/v. All spray solutions also contained 12.5% v/v of iso-Propanol. The weed species and their BBCH growth stage at spraying were Abutilon theophrasti (ABUTH; growth stage 13), Chenopodium album (CHEAL; growth stage 13-14), Digitaria sanguinalis (DIGSA; growth stage 11), and Setaria viridis (SETVI; growth stage 13). Each spray test was replicated three times. The test plants were then grown in a glasshouse under controlled conditions (at 24/18° C. day/night; 16 hours light; 65% humidity) and watered twice a day. The efficacy of the herbicide was assessed visually and expressed as a percentage of the leaf area killed. Samples were assessed at a time period of 21 days following application. The results shown in Table 1 below are mean averages over the two rates of nicosulfuron, and the three replicates.

Compound | Mean % Herbicidal Activity ABUTH
CCCCCCCCC=CCCCCCCCCOc1cc(OCCOCCOCCOCCOCCOCCOCCOCCOCCOCCOCCOCCOCCOCCOCCOCCOCCOCCOCCOCCOC)ncn1 [Adjuvant 11] | 64%
CCCCCCOc1cc(OCCOCCOC)ncn1 [Adjuvant 1] | 64%
CCCCCCCCCCCCOc1cc(OCC(C)OCC(C)OCC(C)OC)ncn1 (centres unmarked) [Adjuvant 12] | 66%
CCCCCCCCC=CCCCCCCCCOc1cc(OCCOCCOCCOCCOCCOCCOCCOCCOCCOCCOC)ncn1 [Adjuvant 10] | 58%

The molecules below were run on Chenopodium album (CHEAL) in the same assay as above. Settings: nicosulfuron WG, mean over 15 and 60 g/ha and 3 replicates; adjuvant 0.2% v/v (none in No Adjuvant rows); % leaf area killed, 21 days after application; Tests 1-4 separate runs.
Format: in vivo
Method: as §1, §2

Compound | Mean % Herbicidal Activity CHEAL
CCCCCCCCC=CCCCCCCCCOc1cc(OCCOCCOCCOCCOCCOCCOCCOCCOCCOCCOCCOCCOCCOCCOCCOCCOCCOCCOCCOCCOC)ncn1 [Adjuvant 11] | 82%
CCCCCCOc1cc(OCCOCCOC)ncn1 [Adjuvant 1] | 84%
CCCCCCCCCCCCOc1cc(OCC(C)OCC(C)OCC(C)OC)ncn1 (centres unmarked) [Adjuvant 12] | 83%
CCCCCCCCC=CCCCCCCCCOc1cc(OCCOCCOCCOCCOCCOCCOCCOCCOCCOCCOC)ncn1 [Adjuvant 10] | 80%

Each molecule was assayed on Digitaria sanguinalis (DIGSA) in the same assay as above. Settings: nicosulfuron WG, mean over 15 and 60 g/ha and 3 replicates; adjuvant 0.2% v/v (none in No Adjuvant rows); % leaf area killed, 21 days after application; Tests 1-4 separate runs.
Format: in vivo
Method: as §1, §2

Compound | Mean % Herbicidal Activity DIGSA
CCCCCCCCC=CCCCCCCCCOc1cc(OCCOCCOCCOCCOCCOCCOCCOCCOCCOCCOCCOCCOCCOCCOCCOCCOCCOCCOCCOCCOC)ncn1 [Adjuvant 11] | 88%
CCCCCCOc1cc(OCCOCCOC)ncn1 [Adjuvant 1] | 88%
CCCCCCCCCCCCOc1cc(OCC(C)OCC(C)OCC(C)OC)ncn1 (centres unmarked) [Adjuvant 12] | 93%
CCCCCCCCC=CCCCCCCCCOc1cc(OCCOCCOCCOCCOCCOCCOCCOCCOCCOCCOC)ncn1 [Adjuvant 10] | 88%

What follows are molecules tested on Setaria viridis (SETVI) in the same assay as above. Settings: nicosulfuron WG, mean over 15 and 60 g/ha and 3 replicates; adjuvant 0.2% v/v (none in No Adjuvant rows); % leaf area killed, 21 days after application; Tests 1-4 separate runs.
Format: in vivo
Method: as §1, §2

Compound | Mean % Herbicidal Activity SETVI
CCCCCCCCC=CCCCCCCCCOc1cc(OCCOCCOCCOCCOCCOCCOCCOCCOCCOCCOCCOCCOCCOCCOCCOCCOCCOCCOCCOCCOC)ncn1 [Adjuvant 11] | 94%
CCCCCCOc1cc(OCCOCCOC)ncn1 [Adjuvant 1] | 93%
CCCCCCCCCCCCOc1cc(OCC(C)OCC(C)OCC(C)OC)ncn1 (centres unmarked) [Adjuvant 12] | 96%
CCCCCCCCC=CCCCCCCCCOc1cc(OCCOCCOCCOCCOCCOCCOCCOCCOCCOCCOC)ncn1 [Adjuvant 10] | 97%

The molecules below were run on Abutilon theophrasti (ABUTH) (assay: Adjuvant efficacy with fomesafen, glasshouse spray test). Settings: fomesafen sodium salt SL, mean over 100 and 200 g/ha and 3 replicates; adjuvant 0.2% v/v (none in No Adjuvant rows); % leaf area killed, 21 days after application; Tests 1-4 separate runs.
Format: in vivo
Method: (§3) The efficacy of adjuvants 1-12 as adjuvants for the herbicide fomesafen (as the sodium salt) were tested in a glasshouse against four weed species, sown into standard soil in pots and cultivated under controlled conditions in a glasshouse (at 24/18° C. day/night; 16 hours light, 65% humidity). Fomesafen sodium salt was added to the spray tank as a standard SL (soluble concentrate) formulation.
(§4) The spray tests were also carried out using fomesafen in conjunction with adjuvants 1-12. Unless otherwise stated, the adjuvants were added to the spray solution at a rate of 0.2% v/v. All spray solutions also contained 12.5% v/v of iso-Propanol to normalise the retention of the sprays on the hydrophobic plant surfaces. The weed species and their BBCH growth stage at spraying were Abutilon theophrasti (ABUTH; growth stage 12-13), Chenopodium album (CHEAL; growth stage 15), Ipomea hederacea (IPOHE; growth stage 12), and Setaria viridis (SETVI; growth stage 14). Each spray test was replicated three times. The test plants were then grown in a glasshouse under controlled conditions (at 24/18° C. day/night; 16 hours light; 65% humidity) and watered twice a day.
(§5) The efficacy of the herbicide was assessed visually and expressed as a percentage of the leaf area killed. Samples were assessed at a time period of 21 days following application. The results shown in Table 2 below are mean averages over the two rates of fomesafen, the three replicates […].

Compound | Mean % Herbicidal Activity ABUTH
CCCCCCCCC=CCCCCCCCCOc1cc(OCCOCCOCCOCCOCCOCCOCCOCCOCCOCCOCCOCCOCCOCCOCCOCCOCCOCCOCCOCCOC)ncn1 [Adjuvant 11] | 48%
CCCCCCOc1cc(OCCOCCOC)ncn1 [Adjuvant 1] | 74%
CCCCCCCCCCCCOc1cc(OCC(C)OCC(C)OCC(C)OC)ncn1 (centres unmarked) [Adjuvant 12] | 74%
CCCCCCCCC=CCCCCCCCCOc1cc(OCCOCCOCCOCCOCCOCCOCCOCCOCCOCCOC)ncn1 [Adjuvant 10] | 56% and 28%

These molecules were tested on Chenopodium album (CHEAL) in the same assay as above. Settings: fomesafen sodium salt SL, mean over 100 and 200 g/ha and 3 replicates; adjuvant 0.2% v/v (none in No Adjuvant rows); % leaf area killed, 21 days after application; Tests 1-4 separate runs.
Format: in vivo
Method: as §3, §4, §5

Compound | Mean % Herbicidal Activity CHEAL
CCCCCCCCC=CCCCCCCCCOc1cc(OCCOCCOCCOCCOCCOCCOCCOCCOCCOCCOCCOCCOCCOCCOCCOCCOCCOCCOCCOCCOC)ncn1 [Adjuvant 11] | 80%
CCCCCCOc1cc(OCCOCCOC)ncn1 [Adjuvant 1] | 79%
CCCCCCCCCCCCOc1cc(OCC(C)OCC(C)OCC(C)OC)ncn1 (centres unmarked) [Adjuvant 12] | 80%
CCCCCCCCC=CCCCCCCCCOc1cc(OCCOCCOCCOCCOCCOCCOCCOCCOCCOCCOC)ncn1 [Adjuvant 10] | 60% and 88%

What follows are molecules tested on Ipomea hederacea (IPOHE) in the same assay as above. Settings: fomesafen sodium salt SL, mean over 100 and 200 g/ha and 3 replicates; adjuvant 0.2% v/v (none in No Adjuvant rows); % leaf area killed, 21 days after application; Tests 1-4 separate runs.
Format: in vivo
Method: as §3, §4, §5

Compound | Mean % Herbicidal Activity IPOHE
CCCCCCCCC=CCCCCCCCCOc1cc(OCCOCCOCCOCCOCCOCCOCCOCCOCCOCCOCCOCCOCCOCCOCCOCCOCCOCCOCCOCCOC)ncn1 [Adjuvant 11] | 98%
CCCCCCOc1cc(OCCOCCOC)ncn1 [Adjuvant 1] | 91%
CCCCCCCCCCCCOc1cc(OCC(C)OCC(C)OCC(C)OC)ncn1 (centres unmarked) [Adjuvant 12] | 98%
CCCCCCCCC=CCCCCCCCCOc1cc(OCCOCCOCCOCCOCCOCCOCCOCCOCCOCCOC)ncn1 [Adjuvant 10] | 92% and 50%

The molecules below were run on Setaria viridis (SETVI) in the same assay as above. Settings: fomesafen sodium salt SL, mean over 100 and 200 g/ha and 3 replicates; adjuvant 0.2% v/v (none in No Adjuvant rows); % leaf area killed, 21 days after application; Tests 1-4 separate runs.
Format: in vivo
Method: as §3, §4, §5

Compound | Mean % Herbicidal Activity SETVI
CCCCCCCCC=CCCCCCCCCOc1cc(OCCOCCOCCOCCOCCOCCOCCOCCOCCOCCOCCOCCOCCOCCOCCOCCOCCOCCOCCOCCOC)ncn1 [Adjuvant 11] | 39%
CCCCCCOc1cc(OCCOCCOC)ncn1 [Adjuvant 1] | 65%
CCCCCCCCCCCCOc1cc(OCC(C)OCC(C)OCC(C)OC)ncn1 (centres unmarked) [Adjuvant 12] | 77%
CCCCCCCCC=CCCCCCCCCOc1cc(OCCOCCOCCOCCOCCOCCOCCOCCOCCOCCOC)ncn1 [Adjuvant 10] | 65% and 17%

These molecules were tested on four weed species (ABUTH, CHEAL, IPOHE, SETVI) (assay: Adjuvant efficacy with fomesafen, glasshouse spray test, average over all species). Settings: fomesafen sodium salt SL, mean over 100 and 200 g/ha, adjuvant 0.2% v/v (none in No Adjuvant rows), 21 days, average of ABUTH.
Format: in vivo
Method: as §3, §4, §5

Compound | Mean % Herbicidal Activity Average over all Species
CCCCCCCCC=CCCCCCCCCOc1cc(OCCOCCOCCOCCOCCOCCOCCOCCOCCOCCOCCOCCOCCOCCOCCOCCOCCOCCOCCOCCOC)ncn1 [Adjuvant 11] | 66%
CCCCCCOc1cc(OCCOCCOC)ncn1 [Adjuvant 1] | 77%
CCCCCCCCCCCCOc1cc(OCC(C)OCC(C)OCC(C)OC)ncn1 (centres unmarked) [Adjuvant 12] | 82%
CCCCCCCCC=CCCCCCCCCOc1cc(OCCOCCOCCOCCOCCOCCOCCOCCOCCOCCOC)ncn1 [Adjuvant 10] | 68% and 46%

Each molecule was assayed on Digitaria sanguinalis (DIGSA) (assay: Adjuvant efficacy with mesotrione, glasshouse spray test). Settings: mesotrione SC, mean over 30 and 60 g/ha and 3 replicates; adjuvant 0.2% v/v (none in No Adjuvant rows); % leaf area killed, 21 days after application; Tests 1-4 separate runs.
Format: in vivo
Method: (§6) The efficacy of adjuvants 1-12 as an adjuvant for the herbicide mesotrione was tested in a glasshouse against four weed species sown into standard soil in pots and cultivated under controlled conditions in a glasshouse (at 24/18° C. day/night; 16 hours light; 65% humidity). Mesotrione was added to the spray tank as a standard SC (suspension concentrate) formulation.
(§7) The spray tests were also carried out using mesotrione in conjunction with adjuvants 1-12. The adjuvants were added to the spray solution at a rate of 0.2% v/v unless otherwise stated. All spray solutions also contained 10% w/w of iso-Propanol. The weed species and their BBCH growth stage at spraying were Brachiaria platyphylla (BRAPP; growth stage 13-14) or Brachiaria plantaginea (BRAPL; growth stage 13-14), Commelina benghalensis (COMBE; growth stage 13), Digitaria sanguinalis (DIGSA; growth stage 14), and Polygonum convolvulus (POLCO; growth stage 13-14). Each spray test was replicated three times.
(§8) The test plants were then grown in a glasshouse under controlled conditions (at 24/18° C. day/night; 16 hours light; 65% humidity) and watered twice a day. The efficacy of the herbicide was assessed visually and expressed as a percentage of the leaf area killed. Samples were assessed at a time period of 21 days following application. The results shown in Table 3 below are mean averages over the two rates of mesotrione and the three replicates.

Compound | Mean % Herbicidal Activity DIGSA
CCCCCCCCC=CCCCCCCCCOc1cc(OCCOCCOCCOCCOCCOCCOCCOCCOCCOCCOCCOCCOCCOCCOCCOCCOCCOCCOCCOCCOC)ncn1 [Adjuvant 11] | 83%
CCCCCCOc1cc(OCCOCCOC)ncn1 [Adjuvant 1] | 81%
CCCCCCCCCCCCOc1cc(OCC(C)OCC(C)OCC(C)OC)ncn1 (centres unmarked) [Adjuvant 12] | 84%
CCCCCCCCC=CCCCCCCCCOc1cc(OCCOCCOCCOCCOCCOCCOCCOCCOCCOCCOC)ncn1 [Adjuvant 10] | 84%

These molecules were tested on Polygonum convolvulus (POLCO) in the same assay as above. Settings: mesotrione SC, mean over 30 and 60 g/ha and 3 replicates; adjuvant 0.2% v/v (none in No Adjuvant rows); % leaf area killed, 21 days after application; Tests 1-4 separate runs.
Format: in vivo
Method: as §6, §7, §8

Compound | Mean % Herbicidal Activity POLCO
CCCCCCCCC=CCCCCCCCCOc1cc(OCCOCCOCCOCCOCCOCCOCCOCCOCCOCCOCCOCCOCCOCCOCCOCCOCCOCCOCCOCCOC)ncn1 [Adjuvant 11] | 92%
CCCCCCOc1cc(OCCOCCOC)ncn1 [Adjuvant 1] | 81%
CCCCCCCCCCCCOc1cc(OCC(C)OCC(C)OCC(C)OC)ncn1 (centres unmarked) [Adjuvant 12] | 98%
CCCCCCCCC=CCCCCCCCCOc1cc(OCCOCCOCCOCCOCCOCCOCCOCCOCCOCCOC)ncn1 [Adjuvant 10] | 95%
